Assay results reported in patent publication US20220323406A1, “METHODS AND COMPOSITIONS FOR DIFFERENTIATING STEM CELLS” (Massachusetts Institute of Technology, priority 2019, published 2022).
Structures can show the parent of a compound that is named as a salt.

Assays:
[1] = tested on: ENR+CD organoids (ISC to Paneth cell differentiation); assay: Primary screen: basal (non-stimulated) lysozyme secretion LYZ.NS, 2.5-D 384-well ENR+CD organoid differentiation; assay type: cell-based, mouse; details: primary screen; for Z.LYZ.NS: standard z score
From the text: (§1) High-throughput screening.

[2] = tested on: ENR+CD organoids (ISC to Paneth cell differentiation); assay: Primary screen: CCh-stimulated lysozyme secretion LYZ.S, 2.5-D 384-well ENR+CD organoid differentiation; assay type: cell-based, mouse; details: primary screen
From the text: as §1

ENR+CD organoids = assay: Primary screen: ATP (CellTiter-Glo 3D, CTG) cell number/viability, 2.5-D 384-well ENR+CD organoids; details: primary screen; for Z.CTG: standard z score;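 as to all read-outs here: compounds given at plating and again on day 3 over a 6-day differentiation from ENR+CV stem-cell-enriched precursors, ATP measured on day 6, plate median as control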

Row | SMILES | Dose.FC.LYZ.NS ([1]; dose 0.08 uM) [log2 fold change] | Dose.FC.LYZ.NS ([1]; dose 0.40 uM) [log2 fold change] | Dose.FC.LYZ.NS ([1]; dose 2.00 uM) [log2 fold change] | Dose.FC.LYZ.NS ([1]; dose 10.00 uM) [log2 fold change] | Z.LYZ.NS ([1]; dose 0.08 uM) | Z.LYZ.NS ([1]; dose 0.40 uM) | Z.LYZ.NS ([1]; dose 2.00 uM) | Z.LYZ.NS ([1]; dose 10.00 uM) | Dose.FC.LYZ.S ([2]; dose 0.08 uM) [log2 fold change] | Dose.FC.LYZ.S ([2]; dose 0.40 uM) [log2 fold change] | Dose.FC.LYZ.S ([2]; dose 2.00 uM) [log2 fold change] | Dose.FC.LYZ.S ([2]; dose 10.00 uM) [log2 fold change] | Dose.FC.CTG (ENR+CD organoids; dose 0.08 uM) [log2 fold change] | Dose.FC.CTG (ENR+CD organoids; dose 0.40 uM) [log2 fold change] | Dose.FC.CTG (ENR+CD organoids; dose 2.00 uM) [log2 fold change] | Dose.FC.CTG (ENR+CD organoids; dose 10.00 uM) [log2 fold change] | Z.CTG (ENR+CD organoids; dose 0.08 uM) | Z.CTG (ENR+CD organoids; dose 0.40 uM) | Z.CTG (ENR+CD organoids; dose 2.00 uM) | Z.CTG (ENR+CD organoids; dose 10.00 uM)
1 | CCNC(=O)[C@H]1O[C@@H](n2cnc3c(N)nc(NCCc4ccc(CCC(=O)O)cc4)nc32)[C@H](O)[C@@H]1O [CGS 21680 HCl] | 0.132 | 0.167 | 0.055 | −0.251 | 1.151 | 1.452 | 0.483 | −2.187 | 0.180 | 0.191 | 0.097 | −0.334 | 0.303 | 0.439 | 0.335 | −1.393 |  |  |  | 
2 | O=c1[nH]c2ccc(Cl)cc2c(N[C@@H]2CN3CCC2CC3)c1-c1nc2ccccc2[nH]1 [CHIR-124] | −0.155 | −0.240 | −0.220 | −0.140 | −1.352 | −2.090 | −1.916 | −1.223 | −0.267 | −0.339 | −0.352 | −0.332 | −0.256 | −0.853 | −0.861 | −1.555 | −0.612 | −2.038 | −2.057 | −3.714
3 | Cc1[nH]c2ccccc2c1CCNC(=O)c1cccs1 [CK-636] | 0.039 | −0.049 | −0.066 | −0.108 | 0.336 | −0.427 | −0.573 | −0.944 | 0.080 | −0.013 | 0.072 | −0.103 | 0.202 | −0.004 | −0.201 | −0.169 | 0.483 | −0.010 | −0.479 | −0.404
4 | C=CC(=O)Nc1cccc(Nc2nc(Nc3ccc(Oc4ccnc(C(=O)NC)c4)cc3)ncc2F)c1 [CNX-774] | 0.075 | −0.008 | 0.158 | −0.043 | 0.655 | −0.067 | 1.378 | −0.376 | 0.014 | −0.027 | 0.082 | −0.089 | 0.259 | 0.177 | −0.109 | −0.081 | 0.619 | 0.422 | −0.260 | −0.194
5 | CN(C)C(=O)[C@H](O)[C@H](Cc1ccccc1)NC(=O)c1cc2cc(Cl)ccc2[nH]1 [CP-91149] | 0.177 | −0.033 | 0.028 | −0.057 | 1.538 | −0.289 | 0.245 | −0.498 | 0.186 | 0.055 | −0.121 | −0.097 | 0.031 | −0.023 | −0.098 | −0.100 | 0.073 | −0.056 | −0.234 | −0.239
6 | COCCOc1ccc2c(c1)ncn2-c1ccc2cccc(N3CCC(N)CC3)c2n1 [CP-673451] | 0.031 | 0.066 | 0.102 | −0.058 | 0.274 | 0.577 | 0.886 | −0.508 | 0.096 | −0.046 | 0.080 | −0.147 | 0.069 | 0.186 | 0.008 | −0.258 |  |  |  | 
7 | O=C(O)c1cc2cccc([N+](=O)[O-])c2[nH]1 [CRT0044876] | 0.016 | 0.034 | 0.047 | 0.032 | 0.135 | 0.298 | 0.408 | 0.278 | −0.002 | 0.055 | 0.014 | −0.061 | −0.171 | −0.040 | −0.081 | −0.099 | −0.410 | −0.096 | −0.192 | −0.237
8 | O=C(/C=C/c1ccc(O)c(O)c1)OCCc1ccccc1 [Caffeic Acid Phenethyl Ester] | 0.053 | 0.167 | 0.090 | −0.026 | 0.465 | 1.453 | 0.781 | −0.227 | 0.189 | 0.070 | −0.021 | −0.117 | 0.262 | −0.011 | −0.064 | −0.511 |  |  |  | 
9 | Cc1ccc([C@@H]2O[C@H](CO)[C@@H](O)[C@H](O)[C@H]2O)cc1Cc1ccc(-c2ccc(F)cc2)s1 [Canagliflozin] | −0.027 | −0.046 | 0.025 | −0.064 | −0.233 | −0.398 | 0.214 | −0.556 | 0.014 | −0.032 | 0.028 | −0.033 | −0.240 | −0.098 | 0.042 | −0.079 | −0.572 | −0.235 | 0.101 | −0.188
10 | CCOc1nc2cccc(C(=O)O)c2n1Cc1ccc(-c2ccccc2-c2nnn[nH]2)cc1 [Candesartan] | 0.013 | −0.015 | 0.007 | −0.051 | 0.113 | −0.128 | 0.065 | −0.442 | −0.015 | −0.032 | −0.092 | −0.075 | −0.003 | −0.125 | −0.198 | −0.253 |  |  |  | 
11 | C[C@H](CS)C(=O)N1CCC[C@H]1C(=O)O [Captopril] | 0.059 | 0.035 | 0.033 | 0.153 | 0.511 | 0.307 | 0.285 | 1.330 | 0.049 | 0.109 | 0.051 | 0.077 | −0.056 | 0.108 | 0.123 | 0.107 |  |  |  | 
